These results are taken from patent US10493043B2, “Pharmaceutical composition for preventing or treating autoimmune diseases comprising cedrol or derivatives thereof, or pharmaceutically acceptable salts thereof” (University of Seoul Industry Cooperation Foundation, priority 2017, dated 2019).

One data set has as its system human IL-17A expression. The data set can be described thus: IL-17A inhibition assay in IL-17 luciferase-(LUCPorter) stable reporter cell line. As to conditions: 10, 100, 1,000 μg/ml.
In data set [1] the test system is psoriasis induced mice. The data set can be described thus: Hair regrowth in psoriasis induced mice after termination of imiquimod application. As to conditions: oral 100 mg/kg. In kind it is in vivo, mouse. The method, then:
(§1) Imiquimod was applied to the psoriasis induced mice which had developed psoriasis for a week in Example <2-1>. The application was stopped 8 days after the application began. The groups CON and IMQ were treated with distilled water, the group C was treated with cedrol, the group CA was treated with cedryl acetate, the group CE was treated with alpha-cedrene alone at the concentration of 100 mg/kg in 200 ? , every day via oral-administration. Day 8 was the day the imiquimod application was stopped, since then the compounds were administered for 1 week once a day, during which photo-recording was performed (FIGS. 13A˜13D).
The psoriasis induced mice orally administered with cedrol, cedryl acetate, and alpha-cedrene of Example <3-1> were observed by the naked eye, and the number of mice showing hair regrowth was counted.

For data set [2], the system named is psoriasis induced mice. The data set can be described thus: Delay of psoriasis development in imiquimod-induced mice (ear thickness, keratosis, skin flair, pain, hemorrhage spots, wrinkles). The class given is in vivo, mouse. The settings on record: for cumulative psoriasis area severity index (ear thickness, keratosis, skin flair), in words: oral 100 mg/kg once a day, FIG. 7; for number of mice showing hemorrhage spots / number of mice showing skin wrinkles / number of mice showing skin pain: oral 100 mg/kg. The method, then:
(§2) To investigate the delayed effect of cedrol, cedryl acetate, and alpha-cedrene on the development of psoriasis, total 5 groups of mice were prepared (8 mice/group). First, the hair of the entire back of the 8-week-old male Balb/c mouse whose immune system was weakened was removed by using a hair clipper (Kimlaube Hair pen 325,327, Rikei, Korea). In the middle of the shaved back of the mouse, 2 mg of imiquimod (3M Health Care Limited, England) was applied in the area of 2 cm×1.5 cm and also 1,125 mg of imiquimod was applied on the right ear of the mouse every day once a day to induce psoriasis.
The mice prepared above were divided into the distilled water treated group (IMQ), the cedrol treated group (C), the cedryl acetate treated group (CA), and the alpha-cedrene treated group (CE). At this time, the mice were orally treated with distilled water at the concentration of 200 ? /mouse and cedrol or its derivatives at the concentration of 200 ? /mouse (100 mg/kg). The day when distilled water or the compound administration started was recorded as day 0 and the administration was performed once a day for a week, during which photo-recording was performed every day (FIGS. 2A˜2D). In the meantime, instead of applying imiquimod, 40 mg of vaseline was applied on the back of the control group (CONT) and 22.5 mg of vaseline was applied on the right ear of the control group. And the control group was orally administered with distilled water (200 ? /mouse).
Then, the psoriasis area severity index (PASI) was calculated with the range of 1˜4 to confirm the reduction effect of the compounds on the ear thickness.
Then, the psoriasis area severity index (PASI) was calculated to confirm the reduction effect of the compounds on keratosis. Keratosis is a symptom of psoriasis. The application of IMQ can induce keratosis.
Then, the psoriasis area severity index (PASI) was calculated to confirm the reduction effect of the compounds on skin flair. Skin flair is a symptom of psoriasis. The application of IMQ can induce skin flair.
The psoriasis area severity index obtained in Examples <2-3> and <2-5> was accumulated to compare the psoriasis area severity index for ear thickness, keratosis and skin flair of the mouse groups respectively treated with cedrol, cedryl acetate, and alpha-cedrene via oral-administration.
When the back of the psoriasis induced mice orally administered with cedrol, cedryl acetate, and alpha-cedrene of Example <2-1> was pinched, those mice who sound painfully with strong rejection were counted. Skin pain is a symptom of psoriasis, and when IMQ is applied, skin pain becomes stronger as time goes by.
The psoriasis induced mice orally administered with cedrol, cedryl acetate, and alpha-cedrene of Example <2-1> were observed by the naked eye, and the number of mice showing hemorrhage spots was counted. Hemorrhage spot is a symptom of psoriasis, and when IMQ is applied, the number of skin hemorrhage spots increases as time goes by.
The psoriasis induced mice orally administered with cedrol, cedryl acetate, and alpha-cedrene of Example <2-1> were observed by the naked eye, and the number of mice showing skin wrinkles was counted. Skin wrinkle is a symptom of psoriasis, and when IMQ is applied, skin keratinization increases and accordingly skin wrinkles are formed as time goes by.

In data set [3] the test system is psoriasis induced mice. Kind of data set: Therapeutic (recovery) effect in psoriasis induced mice after termination of imiquimod application. The class given is in vivo, mouse. As to conditions: for number of mice showing hemorrhage spots / number of mice showing skin wrinkles: oral 100 mg/kg; for PASI reflecting skin flair: distilled water 0.7±0.6. Here is the method: as §1
The psoriasis area severity index (Psoriasis Area Severity Index, PASI) was given from the point 1 to point 4, based on which the recovery effect on the ear thickness was evaluated.
Then, the psoriasis area severity index (Psoriasis Area Severity Index, PASI) was calculated, based on which the recovery effect on keratosis was evaluated.
The psoriasis area severity index obtained in Examples <3-2> and <3-4> was accumulated to compare the psoriasis area severity index for ear thickness, keratosis and skin flair of the mouse groups respectively treated with cedrol, cedryl acetate, and alpha-cedrene via oral-administration.
The psoriasis induced mice orally administered with cedrol, cedryl acetate, and alpha-cedrene of Example <3-1> were observed by the naked eye, and the number of mice showing the recovery of hemorrhage spots was counted.
The psoriasis induced mice orally administered with cedrol, cedryl acetate, and alpha-cedrene of Example <3-1> were observed by the naked eye, and the number of mice showing the recovery of skin wrinkles was counted.

A short description of data set [4]: Weight changes in psoriasis induced mice during oral administration. The class given is in vivo, mouse. The settings on record: oral 100 mg/kg once a day during IMQ application, for 7 days; IMQ alone reduced by 0.48 g. Here is the method: as §2
The mice prepared above were divided into the distilled water treated group (IMQ), the cedrol treated group (C), the cedryl acetate treated group (CA), and the alpha-cedrene treated group (CE). […] The day when distilled water or the compound administration started was recorded as day 0 and the administration was performed once a day for a week, during which photo-recording was performed every day (FIGS. 2A˜2D). […]
To compare the weight changes in the psoriasis induced mice according to the oral administration of cedrol, cedryl acetate, and alpha-cedrene of Example <2-1>, the weight of each mouse was measured at the same time every day for a week.

Where [5] appears, read: day 7, 8 mice/group, IMQ alone 3 mice.
Where [6] appears, read: day 7, 8 mice/group, IMQ alone 5 mice.
Where [7] appears, read: oral 100 mg/kg once a day, day 15.
The mark [8] stands for this setting: day 16, distilled water 1 mouse.
[9] abbreviates: day 16, distilled water one mouse.
[10] abbreviates: oral 100 mg/kg once a day, day 16.

In the case of `CC(=O)O[C@]1(C)CC[C@@]23C[C@@H]1C(C)(C)[C@@H]2CC[C@H]3C` [cedryl acetate, Cedryl acetate], in the data set on human IL-17A expression, the “suppression of the expression of IL-17A (in words)” value (“suppression” below) was “dose-dependently”. Moreover, the “number of mice showing hair regrowth” value in the data set with psoriasis induced mice [1] (day 14, distilled water one mouse) was “one mouse”. Besides, the “cumulative psoriasis area severity index (ear thickness, keratosis, skin flair), in words” value with psoriasis induced mice [2] was “strongest reduction effect”. In addition, the “number of mice showing hemorrhage spots” value in the data set with psoriasis induced mice [2] (day 5, 8 mice/group) is on record as “one mouse”; in the data set with psoriasis induced mice [2] (setting [6]), “one mouse”; in the data set on psoriasis induced mice [3] (setting [8]), “no mouse”. In addition, the “number of mice showing skin wrinkles” value is recorded as “one mouse” in the data set on psoriasis induced mice [2] (day 5, 8 mice/group); “one mouse” in the data set on psoriasis induced mice [2] (setting [5]); “no mouse” in the data set on psoriasis induced mice [3] (setting [9]). Further, the “number of mice showing skin pain” value in the data set on psoriasis induced mice [2] (day 6, 8 mice/group) is “one mouse”; with psoriasis induced mice [2] (setting [6]) it was “no mice”. In the data set on psoriasis induced mice [3] (setting [7]), the “PASI reflecting the ear thickness” value is “recovered to normal”.

As to `CC1=CC[C@@]23C[C@@H]1C(C)(C)[C@@H]2CC[C@H]3C` [alpha-cedrene, Alpha-cedrene], the “suppression” value with human IL-17A expression is reported as “dose-dependently”. In addition, the “number of mice showing hair regrowth” value with psoriasis induced mice [1] (day 13) is listed as “one mouse”; in the data set on psoriasis induced mice [1] (day 16, distilled water 5 mice), “all the mice”. Further, the “cumulative psoriasis area severity index (ear thickness, keratosis, skin flair), in words” value with psoriasis induced mice [2] is on record as “strongest reduction effect”. For the same molecule, the “number of mice showing hemorrhage spots” value with psoriasis induced mice [2] (day 5, 8 mice/group) is listed as “two mice”; in the data set with psoriasis induced mice [2] (setting [6]), “one mouse”; in the data set on psoriasis induced mice [3] (setting [8]) it was “no mouse”. The “number of mice showing skin wrinkles” value in the data set with psoriasis induced mice [2] (day 6, 8 mice/group) was “one mouse”; in the data set with psoriasis induced mice [2] (setting [5]) it was “one mouse”; with psoriasis induced mice [3] (setting [9]) it was “no mouse”. Also, the “number of mice showing skin pain” value in the data set with psoriasis induced mice [2] (during the 7 day observation period) is on record as “no mice”. For the same molecule, the “PASI reflecting skin flair” value in the data set on psoriasis induced mice [3] (setting [10]) is reported as “disappeared”.

As to `C[C@@H]1CC[C@H]2C(C)(C)[C@H]3C[C@@]12CC[C@@]3(C)O` [cedrol, Cedrol], the “suppression” value in the data set on human IL-17A expression is “dose-dependently”. Also, in data set [4], the “weight change (increase)” value is listed as 0.025 g. Moreover, the “number of mice showing hair regrowth” value in the data set on psoriasis induced mice [1] (day 16, distilled water 5 mice) is listed as “all the mice”. The “number of mice showing hemorrhage spots” value is “one mouse” in the data set with psoriasis induced mice [2] (day 4, 8 mice/group) and “no mouse” with psoriasis induced mice [3] (day 12). The “number of mice showing skin pain” value was “one mouse” in the data set with psoriasis induced mice [2] (day 4, 8 mice/group) and “no mice” in the data set on psoriasis induced mice [2] (day 5, 8 mice/group). In addition, the “number of mice showing skin wrinkles” value with psoriasis induced mice [2] (day 5, 8 mice/group) is recorded as “one mouse”; in the data set on psoriasis induced mice [3] (after day 15), “no mouse”. In the data set with psoriasis induced mice [3] (oral 100 mg/kg once a day, FIG. 17), the “cumulative psoriasis area severity index (ear thickness, keratosis, skin flair), recovery in words” value is “strongest recovery effect”. For the same molecule, in the data set on psoriasis induced mice [3] (setting [7]), the PASI reflecting keratosis result is on record as “recovered to normal”. Besides, in the data set on psoriasis induced mice [3] (setting [10]), the “PASI reflecting skin flair” value was “disappeared”.
